# Assays:
# 5-HT1A receptor = target: T1, 5-HT1A receptor (Homo sapiens, UniProt P08908); conditions: cited from earlier work
# T1 sequence (P08908 1-422): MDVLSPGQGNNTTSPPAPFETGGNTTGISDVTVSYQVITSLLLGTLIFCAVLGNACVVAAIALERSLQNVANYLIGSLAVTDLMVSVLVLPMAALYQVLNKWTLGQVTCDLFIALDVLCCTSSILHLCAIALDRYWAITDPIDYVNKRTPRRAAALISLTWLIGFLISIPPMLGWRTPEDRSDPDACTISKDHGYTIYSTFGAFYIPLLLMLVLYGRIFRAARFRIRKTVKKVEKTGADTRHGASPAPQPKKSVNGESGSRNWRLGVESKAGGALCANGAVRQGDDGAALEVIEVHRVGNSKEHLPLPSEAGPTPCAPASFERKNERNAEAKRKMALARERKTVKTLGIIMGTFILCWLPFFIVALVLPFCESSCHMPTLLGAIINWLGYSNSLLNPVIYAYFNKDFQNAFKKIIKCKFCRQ
# [1] = 13-week dietary admixture study in rats, body weight; format: in vivo
# Description: To test the efficacy of Flibanserin in the treatment of obesity groups of the rats per sex per group (gang-housed) received Flibnanserin at dosages of 0 (control), 100, 200, and 600 mg/kg/day via dietary admixture. The test compound was mixed with the food to obtain a 3% premix. This premix was prepared in week −1 and drug week 7 and was used to prepare the substance/food mixtures for all individual groups. The substance/food concentration was calculated using the mean daily food intake from the study week before. The substance/food mixture was made weekly for every dose group and stored under darkness in the animal room. The concentration, homogeneity and stability of the test substance in the food was checked during study week 2 with reanalysis one and four weeks later. One further check of concentration and homogeneity was performed in week 13. The body weight of each animal was determined and recorded once a week including the pretest acclimation period, in the morning on the same day of the week.
# The following tables presents the results of the above described experiments as absolute body weights at start of treatment (week −1) as well as in drug week 6 and 13, including percentage change compared to controls. (in parentheses).
# 5-HT2-receptor family = conditions: cited from earlier work
# [2] = female rats, 100 mg/kg/day via diet, drug week 6
# [3] = female rats, 100 mg/kg/day via diet, drug week 13
# [4] = female rats, 100 mg/kg/day via diet, drug week −1 (start of treatment)
# [5] = female rats, 200 mg/kg/day via diet, drug week 6
# [6] = female rats, 200 mg/kg/day via diet, drug week 13
# [7] = female rats, 200 mg/kg/day via diet, drug week −1 (start of treatment)
# [8] = female rats, 600 mg/kg/day via diet, drug week 6
# [9] = female rats, 600 mg/kg/day via diet, drug week 13
# [10] = female rats, 600 mg/kg/day via diet, drug week −1 (start of treatment)
# [11] = male rats, 100 mg/kg/day via diet, drug week 6
# [12] = male rats, 100 mg/kg/day via diet, drug week 13
# [13] = male rats, 100 mg/kg/day via diet, drug week −1 (start of treatment)
# [14] = male rats, 200 mg/kg/day via diet, drug week 6
# [15] = male rats, 200 mg/kg/day via diet, drug week 13
# [16] = male rats, 200 mg/kg/day via diet, drug week −1 (start of treatment)
# [17] = male rats, 600 mg/kg/day via diet, drug week 6
# [18] = male rats, 600 mg/kg/day via diet, drug week 13
# [19] = male rats, 600 mg/kg/day via diet, drug week −1 (start of treatment)
compound,measurement,setting,value
"O=c1[nH]c2ccccc2n1CCN1CCN(c2cccc(C(F)(F)F)c2)CC1 [BIMT 17 BS, 1-[2-(4-(3-trifluoromethyl-phenyl)piperazin-1-yl)ethyl]-2,3-dihydro-1H-benzimidazol-2-one]",affinity for the 5-HT1A receptor,5-HT1A receptor,shows affinity
same,Mean absolute body weight,[1]; [2],213.6 grams
same,percent change to controls (body weight),[1]; [2],−6.8%
same,Mean absolute body weight,[1]; [3],234.5 grams
same,percent change to controls (body weight),[1]; [3],−10.3%
same,Mean absolute body weight,[1]; [4],141.3 grams
same,percent change to controls (body weight),[1]; [4],+0.1%
same,Mean absolute body weight,[1]; [5],209.7 grams
same,percent change to controls (body weight),[1]; [5],−8.5%
same,Mean absolute body weight,[1]; [6],234.9 grams
same,percent change to controls (body weight),[1]; [6],−10.2%
same,Mean absolute body weight,[1]; [7],142.2 grams
same,percent change to controls (body weight),[1]; [7],+0.7%
same,Mean absolute body weight,[1]; [8],196.0 grams
same,percent change to controls (body weight),[1]; [8],−14.4%
same,Mean absolute body weight,[1]; [9],225.8 grams
same,percent change to controls (body weight),[1]; [9],−13.7%
same,Mean absolute body weight,[1]; [10],140.7 grams
same,percent change to controls (body weight),[1]; [10],−0.4%
same,difference compared to controls at study end (body weight decrease),"[1]; females, 100 mg/kg/day",10%
same,difference compared to controls at study end (body weight decrease),"[1]; females, 200 mg/kg/day",10%
same,difference compared to controls at study end (body weight decrease),"[1]; females, 600 mg/kg/day",14%
same,Mean absolute body weight,[1]; [11],340.9 grams
same,percent change to controls (body weight),[1]; [11],−7.4%
same,Mean absolute body weight,[1]; [12],397.4 grams
same,percent change to controls (body weight),[1]; [12],−9.8%
same,Mean absolute body weight,[1]; [13],188.1 grams
same,percent change to controls (body weight),[1]; [13],−1.7%
same,Mean absolute body weight,[1]; [14],340.4 grams
same,percent change to controls (body weight),[1]; [14],−7.5%
same,Mean absolute body weight,[1]; [15],400.9 grams
same,percent change to controls (body weight),[1]; [15],−9.0%
same,Mean absolute body weight,[1]; [16],189.3 grams
same,percent change to controls (body weight),[1]; [16],−1.0%
same,Mean absolute body weight,[1]; [17],284.8 grams
same,percent change to controls (body weight),[1]; [17],−22.7%
same,Mean absolute body weight,[1]; [18],333.2 grams
same,percent change to controls (body weight),[1]; [18],−24.3%
same,Mean absolute body weight,[1]; [19],186.8 grams
same,percent change to controls (body weight),[1]; [19],−2.4%
same,difference compared to controls at study end (body weight decrease),"[1]; males, 100 mg/kg/day",10%
same,difference compared to controls at study end (body weight decrease),"[1]; males, 200 mg/kg/day",9%
same,difference compared to controls at study end (body weight decrease),"[1]; males, 600 mg/kg/day",24%
same,body weight gain of males and females,"[1]; rats, 100, 200 and 600 mg/kg/day via diet, in almost all drug weeks, versus controls",significantly decreased
same,affinity for the 5-HT2-receptor family,5-HT2-receptor family,shows affinity

# Reference: patent US20190282566A1, “USE OF FLIBANSERIN IN THE TREATMENT OF OBESITY” (Sprout Pharmaceuticals, Inc., priority 2005, published 2019)
